{
  "source": "patent US11648239B2",
  "about": "“Azophenols as ERG oncogene inhibitors” (The Henry M. Jackson Foundation for the Advancement of …, priority 2015, dated 2023)",
  "key": {"COLO320 cells": {"tested_on": "COLO320 cells", "assay": "COLO320 cell growth", "type": "cell-based", "conditions": "0.25 μM and 1 μM, FIG. 9", "method": "(§1) Approximately 48 hours following plating of cells, the appropriate test compound is added to each well of the tissue culture dish at a predetermined concentration. The medium was replenished every 24 hours with fresh growth medium containing the same concentration of the same test compound for indicated period of the cell growth inhibition assay. Percent cell growth inhibition was calculated using a hemocytometer for estimating cell density in each of the test wells of the tissue culture dish and trypan blue dye exclusion microscopy and photography to estimate the fraction of viable cells in each test well."}, "ERG protein [1]": {"biological_target": "T1, ERG protein (Homo sapiens, UniProt P11308)", "T1 sequence (P11308 1-479)": "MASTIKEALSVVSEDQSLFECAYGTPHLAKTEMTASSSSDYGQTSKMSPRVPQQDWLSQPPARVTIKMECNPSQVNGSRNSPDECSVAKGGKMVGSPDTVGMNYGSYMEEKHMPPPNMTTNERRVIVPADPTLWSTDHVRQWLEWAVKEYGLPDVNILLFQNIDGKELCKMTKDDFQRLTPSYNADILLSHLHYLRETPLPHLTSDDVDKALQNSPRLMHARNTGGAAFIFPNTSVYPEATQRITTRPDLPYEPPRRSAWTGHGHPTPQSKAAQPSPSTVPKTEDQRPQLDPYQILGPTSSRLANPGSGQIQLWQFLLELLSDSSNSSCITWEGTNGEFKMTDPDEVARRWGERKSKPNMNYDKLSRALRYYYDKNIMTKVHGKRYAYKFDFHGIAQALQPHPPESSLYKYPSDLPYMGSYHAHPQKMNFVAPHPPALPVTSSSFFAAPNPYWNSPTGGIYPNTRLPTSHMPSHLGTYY", "assay": "Inhibition of endogenous ERG protein in COLO320 cells (Western blot)", "type": "cell-based", "set-up": "host or cells: COLO320", "conditions": "0.25 μM and 1 μM, FIG. 8", "method": "(§2) Inhibition of ERG protein expression by the test compounds were determined by Western blot analysis. The ERG specific monoclonal antibody CPDR ERG-MAb was used as the primary antibody. In brief, Western blot was performed by running a fixed amount of total protein extracted from cell lysates of the treated cells using (4-12% Bis-Tris) gel by electrophoresis, followed by transfer to membrane and incubation with primary antibody and continued with HRP-conjugated secondary antibody. Cultured cells were treated at specific dosages with each of the tested ERG inhibitors. Following incubation of the treated cells for an indicated time period, cells were lysed using Mammalian Protein Extraction Reagent (M-PER; Pierce, Rockford, Ill.) containing a protease inhibitor cocktail and phosphatase inhibitor cocktails I & III (Sigma, St Louis, Mo.). Cell lysates containing 50 μg of total protein were electrophoresed through 4-12% Bis-Tris Gel (Invitrogen, Carlsbad, Calif.) and the cellular proteins were transferred to PVDF membrane (Invitrogen, Carlsbad, Calif.). Membranes were incubated at 4° C. for 12 hours with primary antibodies for AR, PSA, GAPDH, α-Tubulin, apoptosis markers and cell cycle regulators. […]"}, "RWPE-1 cells": {"tested_on": "RWPE-1 cells", "assay": "RWPE-1 cell growth", "type": "cell-based", "conditions": "0.25 μM and 1 μM, FIG. 12", "method": "as §1"}, "RIOK2 protein": {"biological_target": "RIOK2 protein (Homo sapiens, UniProt Q9BVS4)", "sequence (Q9BVS4 whole entry)": "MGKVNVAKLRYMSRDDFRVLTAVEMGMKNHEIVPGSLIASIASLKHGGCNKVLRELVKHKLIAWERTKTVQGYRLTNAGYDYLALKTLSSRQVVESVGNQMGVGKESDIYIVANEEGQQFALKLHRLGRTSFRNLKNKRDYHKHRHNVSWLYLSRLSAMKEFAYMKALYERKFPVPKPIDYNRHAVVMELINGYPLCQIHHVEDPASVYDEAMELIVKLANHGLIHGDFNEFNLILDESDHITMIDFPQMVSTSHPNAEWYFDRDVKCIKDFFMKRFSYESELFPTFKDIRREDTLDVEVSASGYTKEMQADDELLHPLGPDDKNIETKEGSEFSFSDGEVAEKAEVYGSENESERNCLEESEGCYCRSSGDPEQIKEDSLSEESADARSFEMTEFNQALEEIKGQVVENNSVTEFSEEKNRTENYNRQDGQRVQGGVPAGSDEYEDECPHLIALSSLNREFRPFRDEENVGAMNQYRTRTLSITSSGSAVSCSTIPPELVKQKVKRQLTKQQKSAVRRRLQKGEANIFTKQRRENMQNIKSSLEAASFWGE", "assay": "Inhibition of RIOK2 protein in HUVEC normal endothelial cells (Western blot)", "type": "cell-based", "set-up": "ERG and RIOK2 proteins in endogenous ERG expressing normal endothelial cells (HUVEC); host or cells: HUVEC", "conditions": "0.25 μM and 1 μM, FIG. 10"}, "HUVEC": {"tested_on": "HUVEC", "assay": "HUVEC cell growth", "type": "cell-based, human", "conditions": "0.25 μM and 1 μM, FIG. 11", "method": "as §1"}, "AR [2]": {"tested_on": "AR", "assay": "Inhibition of endogenous AR protein in LAPC-4 cells (Western blot)", "type": "cell-based", "conditions": "ERG negative LAPC-4; 0.25 μM and 1 μM; FIG. 6", "method": "(§3) To investigate whether the azophenol compounds of the invention are selective inhibitors of ERG protein expression, representative azophenol compounds were further tested for its ability to inhibit AR and PSA activity in the following AR positive/ERG negative prostate cancer cell lines: LNCaP (mutant AR positive and ERG negative), as well as in LAPC4 cells that are AR (wild type) positive and ERG negative.\nas §2, with “Mo.).” for “Mo.). Cell lysates containing 50 μg of total protein were electrophoresed through 4-12% Bis-Tris Gel (Invitrogen, Carlsbad, Calif.) and the cellular proteins were transferred to PVDF membrane (Invitrogen, Carlsbad, Calif.). Membranes were incubated at 4° C. for 12 hours with primary antibodies for AR, PSA, GAPDH, α-Tubulin, apoptosis markers and cell cycle regulators.”"}, "AR [3]": {"tested_on": "AR", "assay": "Inhibition of endogenous AR protein in LNCaP cells (Western blot)", "type": "cell-based", "conditions": "ERG negative LNCaP; 0.25 μM and 1 μM; FIG. 4", "method": "as §3\nas §2, with “Mo.).” for “Mo.). Cell lysates containing 50 μg of total protein were electrophoresed through 4-12% Bis-Tris Gel (Invitrogen, Carlsbad, Calif.) and the cellular proteins were transferred to PVDF membrane (Invitrogen, Carlsbad, Calif.). Membranes were incubated at 4° C. for 12 hours with primary antibodies for AR, PSA, GAPDH, α-Tubulin, apoptosis markers and cell cycle regulators.”"}, "BPH-1 cells": {"tested_on": "BPH-1 cells", "assay": "BPH-1 cell growth", "type": "cell-based", "conditions": "0.25 μM and 1 μM, FIG. 12", "method": "as §1"}, "ERG protein [4]": {"biological_target": "T1, ERG protein", "assay": "Inhibition of ERG protein in HUVEC normal endothelial cells (Western blot)", "type": "cell-based", "conditions": "0.25 μM and 1 μM, FIG. 10", "method": "as §2"}},
  "data": [
    {"smiles": "Cc1ccc(O)c(N=Nc2nccs2)c1", "note": "[Compound 2]", "values": [
      {"measurement": "inhibition of growth of ERG harboring colon cancer cells", "setting": "COLO320 cells", "result": "inhibition"},
      {"measurement": "inhibition of endogenous ERG protein", "setting": "ERG protein [1]", "result": "inhibition"},
      {"measurement": "growth of ERG negative prostate-derived immortalized cells", "setting": "RWPE-1 cells", "result": "do not affect the growth"},
      {"measurement": "inhibition of RIOK2 protein", "setting": "RIOK2 protein", "result": "lack of inhibition"},
      {"measurement": "growth of ERG harboring normal endothelial cells", "setting": "HUVEC", "result": "do not affect the growth"},
      {"measurement": "inhibition of endogenous AR protein", "setting": "AR [2]", "result": "do not inhibit"},
      {"measurement": "inhibition of endogenous AR protein", "setting": "AR [3]", "result": "lack of inhibition"},
      {"measurement": "growth of ERG negative prostate-derived immortalized cells", "setting": "BPH-1 cells", "result": "do not affect the growth"},
      {"measurement": "inhibition of ERG protein", "setting": "ERG protein [4]", "result": "lack of inhibition"}
    ]},
    {"smiles": "CC(C)c1ccc(O)c(N=Nc2nccs2)c1", "note": "[Compound 1]", "values": [
      {"measurement": "inhibition of growth of ERG harboring colon cancer cells", "setting": "COLO320 cells", "result": "inhibition"},
      {"measurement": "inhibition of endogenous ERG protein", "setting": "ERG protein [1]", "result": "inhibition"},
      {"measurement": "growth of ERG negative prostate-derived immortalized cells", "setting": "RWPE-1 cells", "result": "do not affect the growth"},
      {"measurement": "inhibition of RIOK2 protein", "setting": "RIOK2 protein", "result": "lack of inhibition"},
      {"measurement": "growth of ERG harboring normal endothelial cells", "setting": "HUVEC", "result": "do not affect the growth"},
      {"measurement": "inhibition of endogenous AR protein", "setting": "AR [2]", "result": "do not inhibit"},
      {"measurement": "inhibition of endogenous AR protein", "setting": "AR [3]", "result": "lack of inhibition"},
      {"measurement": "growth of ERG negative prostate-derived immortalized cells", "setting": "BPH-1 cells", "result": "do not affect the growth"},
      {"measurement": "inhibition of ERG protein", "setting": "ERG protein [4]", "result": "lack of inhibition"}
    ]}
  ]
}
